Data on two compounds can be found in PMC4846294 (Bioorganic & medicinal chemistry, 2016).

Read-outs that look alike come from different tables or passages of the source. Marks after values point to notes of the source that are not given here.

Assay [1] deals with SK-OV-3 (ovarian). To be noted: read-out: GI50 SRB Assay SK-OV-3; cited from earlier work.
The test system of assay [2] is NCI-H460 (lung). To be noted: read-out: GI50 SRB Assay NCI-H460; cited from earlier work.
For assay [3], the system named is DU-145 (prostate). The settings on record: read-out: GI50 SRB Assay DU-145; cited from earlier work.
The subject of assay [4] is purified bovine brain tubulin. The settings on record: read-out: Inhibition of Tubulin Polymerization IC50; cited from earlier work.
Assay [5] has as its system tubulin. The settings on record: inhibitor 5 μM; cited from earlier work.
Assay [6] has as its system SK-OV-3 (ovarian). The experiment in a line: SRB cytotoxicity assay, SK-OV-3. It counts as cell-based, human. The settings on record: read-out: GI50 SRB Assay SK-OV-3; 48 h treatment; average of n ≥ 3. On the technique in general: The SRB assay estimates cell density from bound dye.
Assay [7] has as its system NCI-H460 (lung). In words: SRB cytotoxicity assay, NCI-H460. It counts as cell-based, human. The settings on record: read-out: GI50 SRB Assay NCI-H460; 48 h treatment; average of n ≥ 3.
The subject of assay [8] is DU-145 (prostate). In words: SRB cytotoxicity assay, DU-145. It counts as cell-based, human. The settings on record: read-out: GI50 SRB Assay DU-145; 48 h treatment; average of n ≥ 3.
Assay [9] deals with tubulin. The experiment in a line: Colchicine binding assay. The settings on record: inhibitor 5 μM; 1.0 μM tubulin, 5.0 μM [3H]colchicine.

For orientation: IC50 means the concentration that gives 50% inhibition. As to `COc1ccc(/C=C\c2cc(OC)c(OC)c(OC)c2)c(O)c1O` [CA1, combretastatin A-1], the GI50 is 38.4 ± 24.2 nM with SK-OV-3 (ovarian) [1], 15.3 ± 15.8 nM in the assay with NCI-H460 (lung) [2] and 32.6 ± 17.3 nM in the assay on DU-145 (prostate) [3]. The IC50 in [4] was 1900 nM. Moreover, in the assay on tubulin [5], the “Inhibition of Colchicine Binding (% Inhibition±SD)” value was 99.6±0.7^b %.
With “(Z)-2-(2'-Methoxy-4'-aminophenyl)-1-(3,4,5-trimethoxyphenyl)ethene hydrochloride [Compound 9]”, the GI50 is 7.35 ± 3.5 nM in the assay on SK-OV-3 (ovarian) [6], 26.3 ± 16.1 nM in the assay on NCI-H460 (lung) [7] and 28.5 ± 23.2 nM in the assay with DU-145 (prostate) [8]. Moreover, in the assay on tubulin [9], the “Inhibition of Colchicine Binding (% Inhibition±SD)” value amounted to 75±0.90%.
